Source: patent US7618802B2 (priority 2003, dated 2009)

Experiments:
wild type SARS-CoV = format: cell-based; settings: single dose of 500 μg/ml at 1 hr pi
icSARS-CoV = format: cell-based, SARS-CoV; settings: single dose of 500 μg/ml at 1 hr pi

Q: What does the source list for CCOC(=O)[C@H]1O[C@@H]1C(=O)N[C@@H](CC(C)C)C(=O)NCCC(C)C (relative stereo) [E64-d, {2S, 3S}-trans-epoxysuccinyl-L-leucylamido-3-methylbutane ethyl ester]?
A: viral CPE and viral antigen expression (wild type SARS-CoV): almost complete elimination; reduction in virus yield (wild type SARS-CoV; 24 and 48 hrs postinfection): 3-4 log; viral CPE and viral antigen expression (icSARS-CoV): almost complete elimination; reduction in virus yield (icSARS-CoV; 24 and 48 hrs postinfection): 3-4 log
